Consider four molecules from US10676462B2, “Quinoline derivative” (ONO PHARMACEUTICAL CO., LTD., priority 2013, dated 2020).

SMILES strings stand for the structures.

The target in one test is T1, Axl enzyme (Homo sapiens, UniProt P30530).
T1 construct: a solution containing 400 ng/mL Axl enzyme was prepared
T1 sequence (P30530 26-894): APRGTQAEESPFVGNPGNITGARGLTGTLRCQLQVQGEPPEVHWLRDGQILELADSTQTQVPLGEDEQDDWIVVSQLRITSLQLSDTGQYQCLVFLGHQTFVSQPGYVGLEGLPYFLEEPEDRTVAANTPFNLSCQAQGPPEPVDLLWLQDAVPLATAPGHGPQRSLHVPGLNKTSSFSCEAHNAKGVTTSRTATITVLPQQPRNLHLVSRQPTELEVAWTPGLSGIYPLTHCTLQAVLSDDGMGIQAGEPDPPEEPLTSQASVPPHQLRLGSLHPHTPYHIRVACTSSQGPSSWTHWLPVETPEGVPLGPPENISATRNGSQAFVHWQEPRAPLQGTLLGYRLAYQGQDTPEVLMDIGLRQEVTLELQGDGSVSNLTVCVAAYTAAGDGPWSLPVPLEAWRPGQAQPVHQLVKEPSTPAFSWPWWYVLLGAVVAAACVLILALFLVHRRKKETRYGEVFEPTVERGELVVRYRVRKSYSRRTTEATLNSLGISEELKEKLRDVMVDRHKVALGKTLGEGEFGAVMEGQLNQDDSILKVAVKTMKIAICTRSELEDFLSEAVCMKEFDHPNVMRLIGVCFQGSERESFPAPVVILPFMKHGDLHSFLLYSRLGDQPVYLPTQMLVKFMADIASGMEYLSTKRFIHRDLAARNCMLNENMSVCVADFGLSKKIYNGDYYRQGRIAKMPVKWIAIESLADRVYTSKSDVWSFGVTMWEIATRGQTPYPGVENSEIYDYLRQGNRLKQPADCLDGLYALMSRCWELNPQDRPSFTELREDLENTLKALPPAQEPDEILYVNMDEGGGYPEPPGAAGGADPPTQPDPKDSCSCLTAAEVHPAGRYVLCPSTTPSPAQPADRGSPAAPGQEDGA
The experiment in a line: Measurement of an Axl inhibitory activity (LanthaScreen TR-FRET, in vitro test). The class given is biochemical. The procedure: Biological Example 1: Measurement of an Axl Inhibitory Activity (In Vitro Test)
An Axl enzyme inhibitory activity was measured by using LanthaScreen (registered trademark) system (Invitrogen) based on the attached instruction. The reagents used are shown below.
Reaction buffer solution: a solution containing 50 mmol/L HEPES (pH7.5), 0.01% Brij35, 10 mmol/L MgCl2 and 1 mmol/L EGTA was prepared by using purified water.
Test substance solution: a solution containing a test compound of 5-fold concentration with respect to the final concentration was prepared by 20-fold diluting a DMSO solution of test compound of each concentration with the reaction buffer solution.
Enzyme solution: a solution containing 400 ng/mL Axl enzyme was prepared by using the reaction buffer solution.
Substrate solution: a solution containing 45 μmmol/L ATP and 500 nmmol/L Fluorescein-Poly GT (Invitrogen) was prepared by using the reaction buffer solution.
Detection solution: a solution containing 20 mM EDTA and 4 nM PY20 (Invitrogen) was prepared by using Dilution B (Invitrogen).
A 10 mmol/L DMSO solution of the test compound was dispensed into a 96-well plate (Nunc), and, furthermore, a 3-fold dilution series was prepared using DMSO. In each well of the 96-well plate for measurement, 5 μL each of the reaction buffer solution containing DMSO was added to a Blank group and a medium group, and 5 μL of the test substance solution was added to the test substance group, respectively. Next, 10 μL/well of the reaction buffer solution was added to the Blank group, and 10 μL/well each of the enzyme solution was added to the medium group and the test compound group, followed by stirring at room temperature for 10 min. After the completion of stirring, 10 μL each of the substrate solution was added into each well, followed by stirring at room temperature with light shielded for one hour. After the completion of reaction, 25 μL each of the detection solution was added to each well, and stood still at room temperature with light shielded for 30 min. After standing sill, fluorescence intensity at 520 nm and 495 nm at the time of irradiation with exciting light of 340 nm was measured by using Analyst GT (Molecular Devices). The phosphorylation of the artificial substrate was quantified by Time-resolved Fluorescence Resonance Energy Transfer (TR-FRET). TR-FRET ratio was calculated by dividing 520 nm fluorescence signal by 495 nm fluorescence signal for each well, and the inhibition rate (%) in the test compound group was calculated based on the following mathematical formula. Inhibition rate (%)=[1−(TR-FRET ratio of test compound group−A)/(B−A)×100 [Math. 1] A: average value of TR-FRET ratios of Blank group B: average value of TR-FRET ratios of medium group
Values of 50% inhibition rate (IC50 values) of the test compound were calculated from the inhibition curve based on the inhibition rate of the test compounds in each concentration.
A general note: TR-FRET usually uses a lanthanide donor and a delayed reading to cut background.

The target of another test is KDR (Homo sapiens, UniProt P35968). Briefly: Evaluation of kinase selectivity (in vitro test), KDR. In kind it is biochemical. The note with it: Axl selective inhibitory activity with respect to KDR, ratio of IC50 values. The procedure: Biological Example 3: Evaluation of Kinase Selectivity (In Vitro Test)
Similar to Biological Example 1, values of 50% inhibition rate (IC50 value) with respect to various kinases (KDR, DDR1, FLT4, and ROS) of the test compound were measured. The Axl selective inhibitory activity of the test compound with respect to kinases, for example, KDR, was calculated based on the above-mentioned ratio of the IC50 values. As the test compound, for the compound of the present invention, the compounds of Examples 5, 5(1), 17(2), and 23(2) were used, and for the comparative compounds, the compound of Example 5 (Comparative compound C) and the compound of Example 92 (Comparative compound D) described in Patent Literature 5, having the following structure, were used.

KDR, sequence (P35968 20-1356): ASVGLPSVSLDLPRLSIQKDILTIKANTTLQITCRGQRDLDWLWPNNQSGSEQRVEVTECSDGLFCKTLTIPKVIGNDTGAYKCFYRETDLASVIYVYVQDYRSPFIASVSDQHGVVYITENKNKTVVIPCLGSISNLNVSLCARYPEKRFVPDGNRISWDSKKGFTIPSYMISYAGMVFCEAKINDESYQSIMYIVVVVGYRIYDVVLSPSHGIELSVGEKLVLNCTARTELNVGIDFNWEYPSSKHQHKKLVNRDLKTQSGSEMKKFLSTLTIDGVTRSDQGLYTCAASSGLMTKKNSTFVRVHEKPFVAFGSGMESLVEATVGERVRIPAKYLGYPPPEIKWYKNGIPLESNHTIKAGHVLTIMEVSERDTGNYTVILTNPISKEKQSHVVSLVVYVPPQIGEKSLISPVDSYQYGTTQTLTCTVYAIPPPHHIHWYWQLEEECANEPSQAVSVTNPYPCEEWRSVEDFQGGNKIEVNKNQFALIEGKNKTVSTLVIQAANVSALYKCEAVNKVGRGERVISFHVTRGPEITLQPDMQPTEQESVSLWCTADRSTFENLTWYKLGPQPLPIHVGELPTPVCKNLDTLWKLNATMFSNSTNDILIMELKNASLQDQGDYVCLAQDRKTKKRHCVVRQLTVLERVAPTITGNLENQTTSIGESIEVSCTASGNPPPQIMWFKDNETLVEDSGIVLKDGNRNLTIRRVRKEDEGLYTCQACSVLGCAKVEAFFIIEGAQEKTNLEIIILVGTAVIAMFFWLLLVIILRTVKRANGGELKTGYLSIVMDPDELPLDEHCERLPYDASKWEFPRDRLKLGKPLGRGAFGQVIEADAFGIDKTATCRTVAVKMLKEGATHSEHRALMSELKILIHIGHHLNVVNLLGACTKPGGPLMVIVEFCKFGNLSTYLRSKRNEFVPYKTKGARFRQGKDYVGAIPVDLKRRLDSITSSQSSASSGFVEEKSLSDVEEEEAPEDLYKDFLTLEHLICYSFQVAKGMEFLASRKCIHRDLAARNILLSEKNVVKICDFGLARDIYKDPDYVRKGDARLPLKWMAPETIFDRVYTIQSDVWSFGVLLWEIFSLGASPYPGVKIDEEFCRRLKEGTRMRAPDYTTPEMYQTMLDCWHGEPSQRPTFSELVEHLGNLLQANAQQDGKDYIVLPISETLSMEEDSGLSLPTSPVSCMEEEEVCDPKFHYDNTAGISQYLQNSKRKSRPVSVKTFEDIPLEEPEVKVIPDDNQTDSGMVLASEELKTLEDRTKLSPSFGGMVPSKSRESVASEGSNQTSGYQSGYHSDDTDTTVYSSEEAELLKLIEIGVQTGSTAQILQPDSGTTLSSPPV

As to `COc1cc2nccc(Oc3ccc(NC(=O)c4cc5c(n(-c6ccccc6)c4=O)CC(C)(C)CC5=O)nc3)c2cc1OC` [Example 5(1), N-{5-[(6,7-dimethoxy-4-quinolinyl)oxy]-2-pyridinyl}-7,7-dimethyl-2,5-dioxo-1-phenyl-1,2,5,6,7,8-hexahydro-3-quinolinecarboxamide], the IC50 against Axl enzyme was 5.6 nM. In addition, the “KDR [IC50]/Axl [IC50]” value on KDR is listed as “about 1800 times”.

Molecule `O=C1CCCc2c1cc(C(=O)Nc1ccc(Oc3ccnc4cc(OCCCN5CCOCC5)ccc34)cn1)c(=O)n2-c1ccccc1` [Example 17(2), N-[5-({7-[3-(4-morpholinyl)propoxy]-4-quinolinyl}oxy)-2-pyridinyl]2,5-dioxo-1-phenyl-1,2,5,6,7,8-hexahydro-3-quinolinecarboxamide] came in with an IC50 against Axl enzyme of 4.4 nM. Also, the “KDR [IC50]/Axl [IC50]” value at KDR was “about 650 times”.

On to `COc1cc2nccc(Oc3ccc(NC(=O)c4cc5c(n(-c6ccccc6)c4=O)CCCC5=O)c(C)c3)c2cc1OC` [Example 23(2), N-{4-[(6,7-dimethoxy-4-quinolinyl)oxy]-2-methylphenyl}-2,5-dioxo-1-phenyl-1,2,5,6,7,8-hexahydro-3-quinolinecarboxamide], for which inhibition at Axl enzyme was half-maximal at 1.1 nM (IC50). Also, on KDR, the “KDR [IC50]/Axl [IC50]” value is “about 520 times”.

Consider `COc1cc2nccc(Oc3ccc(NC(=O)c4cc5c(n(-c6ccccc6)c4=O)CCCC5=O)nc3)c2cc1OC` [Example 5, N-{5-[(6,7-dimethoxy-4-quinolinyl)oxy]-2-pyridinyl}-2,5-dioxo-1-phenyl-1,2,5,6,7,8-hexahydro-3-quinolinecarboxamide], for which the IC50 against Axl enzyme was 2.2 nM. Further, on KDR, the “KDR [IC50]/Axl [IC50]” value is listed as “about 900 times”.

By IC50 is commonly meant the concentration at which inhibition is half-maximal. Lower therefore signals inhibition by little substance.
